From patent US10065990B2, “Cyclic peptide compound, and preparation method, pharmaceutical composition and use thereof” (HANGZHOU GUANYU BIO-MEDICAL CO., LTD, priority 2013, dated 2018)
Read-outs that look alike come from different tables or passages of the source.

What was measured:
[1] = system: Huh-7 (human hepatoma cells); experiment: MTT cancer cell growth inhibition; format: cell-based; details: Homo sapiens, Huh-7, 72 h, MTT, 72 hours incubation, Huh-7 cells; read-out: GI50 Huh-7
How it was run: (§1)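 GI50 values come from MTT viability: after 72 h compound exposure (final 10^−5–10^−10 M, three wells each) of cells plated overnight at 1500/well in 10% FBS medium, MTT was given for 4 h. The DMSO-solubilised formazan was then measured at 570 nm.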

[2] = system: PANC-1 (Pac-1, human pancreatic cancer cells); experiment: MTT cancer cell growth inhibition; format: cell-based; details: Homo sapiens, PANC-1, 72 h, MTT, 72 hours incubation, read-out: GI50 PAN
How it was run: as §1

[3] = system: DU145 (human prostate cancer cells); experiment: MTT cancer cell growth inhibition; format: cell-based; details: Homo sapiens, DU-145, 72 h, MTT, 72 hours incubation, read-out: GI50 Du1
How it was run: as §1

[4] = system: MOLT-4 (human acute lymphoblastic leukemia cells); experiment: MTT cancer cell growth inhibition; format: cell-based; details: Homo sapiens, MOLT-4, 72 h, MTT, 72 hours incubation, read-out: GI50 Mol
How it was run: as §1

[5] = system: U937 (human leukemia cells); experiment: MTT cancer cell growth inhibition; format: cell-based; details: Homo sapiens, U-937, 72 h, MTT, 72 hours incubation, read-out: GI50 U93
How it was run: as §1

[6] = system: KBM5-T315I (human chronic myelogenous leukemia); experiment: MTT cancer cell growth inhibition; format: cell-based; details: Homo sapiens, 72 h, MTT, 72 hours incubation, KBM5-T315I cells; read-out: GI50 KBM5-T315I
How it was run: as §1

[7] = system: HCC827 (human non-small cell lung cancer cells); experiment: MTT cancer cell growth inhibition; format: cell-based; details: Homo sapiens, HCC827, 72 h, MTT, 72 hours incubation, HCC827 cells; read-out: GI50 HCC827
How it was run: as §1

[8] = system: N-87 (human gastric cancer cells); experiment: MTT cancer cell growth inhibition; format: cell-based; details: Homo sapiens, 72 h, MTT, 72 hours incubation, N-87 cells; read-out: GI50 N-87
How it was run: as §1

[9] = system: MDA-MB-231 (breast cancer cells); experiment: MTT cancer cell growth inhibition; format: cell-based; details: Homo sapiens, MDA-MB-231, 72 h, read-out: GI50 MDA-MB-231, MTT, 72 hours incubation, MDA-MB-231 cells
How it was run: as §1

[10] = system: H1975 (non-small cell lung adenocarcinoma); experiment: MTT cancer cell growth inhibition; format: cell-based; details: Homo sapiens, NCI-H1975, 72 h, MTT, 72 hours incubation, H1975 cells; read-out: GI50 H1975
How it was run: as §1

[11] = system: Bel-7402 (human hepatoma cells); experiment: MTT cancer cell growth inhibition; format: cell-based; details: Homo sapiens, Bel-7402, 72 h, MTT, 72 hours incubation, Bel-7402 cells; read-out: GI50 Bel-7402
How it was run: as §1

[12] = system: lncap (prostate cancer cells); experiment: MTT cancer cell growth inhibition; format: cell-based; details: Homo sapiens, LNCaP, 72 h, MTT, 72 hours incubation, read-out: GI50 lnca
How it was run: as §1

[13] = system: SGC-7901 (human gastric cancer cells); experiment: MTT cancer cell growth inhibition; format: cell-based; details: Homo sapiens, SGC-7901, 72 h, MTT, 72 hours incubation, SGC-7901 cells; read-out: GI50 SGC-7901
How it was run: as §1

[14] = system: Hela (human cervical cancer cells); experiment: MTT cancer cell growth inhibition; format: cell-based; details: Homo sapiens, HeLa, 72 h, MTT, 72 hours incubation, read-out: GI50 Hela
How it was run: as §1

HDAC1 = HDAC1 (Homo sapiens, UniProt Q13547); experiment: HDAC biochemical activity measurement (fluorescent substrate deacetylation);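 note: fluorogenic acetyl-lysine substrate (20 µM) deacetylated by HDAC1, then developer releases fluorophore read at 360 nm excitation and 460 nm emission, inhibitor incubated 30 min at 37 °C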
[15] = HDAC1, 37° C. 30 minutes, read-out: IC50 HDAC1
[16] = Table 3, column C, read-out: IC50 HDAC1, C (six-membered ring with substituents)
[17] = Table 3, read-out: IC50 HDAC1, D (non-substituent)

Chain of HDAC1 (Q13547 whole entry, species assumed): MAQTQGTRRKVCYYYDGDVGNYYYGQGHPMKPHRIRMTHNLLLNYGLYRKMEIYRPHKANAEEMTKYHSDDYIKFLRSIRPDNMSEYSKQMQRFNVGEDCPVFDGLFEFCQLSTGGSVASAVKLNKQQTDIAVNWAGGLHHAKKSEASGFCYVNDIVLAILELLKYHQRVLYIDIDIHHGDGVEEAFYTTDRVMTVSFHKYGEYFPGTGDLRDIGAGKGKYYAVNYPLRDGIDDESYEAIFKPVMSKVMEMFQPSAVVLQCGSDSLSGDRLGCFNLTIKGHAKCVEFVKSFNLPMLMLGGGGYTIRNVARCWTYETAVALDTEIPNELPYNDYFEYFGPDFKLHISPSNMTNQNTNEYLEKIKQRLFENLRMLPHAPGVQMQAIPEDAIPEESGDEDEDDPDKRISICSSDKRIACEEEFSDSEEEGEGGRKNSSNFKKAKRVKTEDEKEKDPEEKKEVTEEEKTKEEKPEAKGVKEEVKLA

| SMILES | GI50 [1] [µM] | GI50 [2] [µM] | GI50 [3] [µM] | GI50 [4] [µM] | GI50 [5] [µM] | GI50 [6] [µM] | GI50 [7] [µM] | GI50 [8] [µM] | GI50 [9] [µM] | GI50 [10] [µM] | GI50 [11] [µM] | GI50 [12] [µM] | GI50 [13] [µM] | GI50 [14] [µM] | IC50 (HDAC1; [15]) [µM] | IC50 (HDAC1; [16]) [µM] | further results |
| --- | --- | --- | --- | --- | --- | --- | --- | --- | --- | --- | --- | --- | --- | --- | --- | --- | --- |
| C/C=C1\NC(=O)c2nc(ccc2F)CNC(=O)C[C@@H](/C=C/CCSC(C)=O)OC(=O)[C@H](Cc2ccc(O)cc2)NC1=O [Compound 81] | 0.034 | 0.05 | 0.02 | 0.03 | 0.04 | 0.034 | 0.051 | 0.035 | 0.034 | 0.043 | 0.051 | 0.03 | 0.059 | 0.03 | 0.037 | 0.037 |  |
| C/C=C1\NC(=O)c2cc(F)cc(n2)CNC(=O)C[C@@H](/C=C/CCSC(C)=O)OC(=O)[C@H](Cc2ccc(O)cc2)NC1=O [Example 82] | 0.029 | 0.08 | 0.03 | 0.02 | 0.05 | 0.038 | 0.081 | 0.026 | 0.029 | 0.052 | 0.081 | 0.02 | 0.048 | 0.04 | 0.094 |  |  |
| C/C=C1\NC(=O)c2cc(C)cc(n2)CNC(=O)C[C@@H](/C=C/CCSC(C)=O)OC(=O)[C@H](Cc2ccccc2)NC1=O [Example 67] | 0.033 | 0.08 | 0.03 | 0.03 | 0.03 | 0.026 | 0.084 | 0.051 | 0.033 | 0.034 | 0.084 | 0.03 | 0.037 | 0.04 |  |  |  |
| C/C=C1\NC(=O)c2ccc(F)c(n2)CNC(=O)C[C@@H](/C=C/CCSC(C)=O)OC(=O)[C@H](CCCCNC(=O)OCC2c3ccccc3-c3ccccc32)NC1=O [Example 77] | 0.025 | 0.08 | 0.04 | 0.02 | 0.03 | 0.037 | 0.083 | 0.052 | 0.025 | 0.035 | 0.083 | 0.02 | 0.601 | 0.05 | 0.094 |  |  |
| C/C=C1\NC(=O)c2ccc(SC)c(n2)CNC(=O)C[C@@H](/C=C/CCSC(=O)CCCCCCC)OC(=O)[C@H](CC)NC1=O [Compound 173] | 0.071 |  |  |  |  | 0.012 | 0.027 | 0.083 | 0.048 | 0.036 | 0.022 |  | 0.023 |  |  |  | GI50 ([2]; PANC-1 cells): 0.04 µM; GI50 ([3]; DU145 cells): 0.06 µM; GI50 ([4]; MOLT-4 cells): 0.03 µM; GI50 ([5]; U937 cells): 0.01 µM; GI50 ([12]; lncap cells): 0.04 µM; GI50 ([14]; Hela cells): 0.06 µM |
| C/C=C1\NC(=O)c2cccc(n2)CNC(=O)C[C@@H](/C=C/CCSC(=O)CCCCCC)OC(=O)[C@H](C(C)C)NC1=O [Compound 2] | 0.073 | 0.03 |  |  |  | 0.029 | 0.042 | 0.029 | 0.092 | 0.034 | 0.083 |  | 0.026 | 0.03 | 0.192 |  | IC50 (HDAC1; [17]): 0.192 µM |
| C/C=C1\NC(=O)c2nc(ccc2F)CNC(=O)C[C@@H](/C=C/CCSC(C)=O)OC(=O)[C@H](Cc2cccc3ccccc23)NC1=O [Compound 78] | 0.029 | 0.07 | 0.04 | 0.02 | 0.06 | 0.019 | 0.072 | 0.061 | 0.029 | 0.063 | 0.072 | 0.02 | 0.062 | 0.06 | 0.063 | 0.063 |  |
| CC(=O)SCC/C=C/[C@@H]1CC(=O)NCc2cc(F)cc(n2)C(=O)NC(=C(C)C)C(=O)N[C@@H](C(C)C)C(=O)O1 [Compound 88] | 0.038 | 0.06 | 0.03 | 0.03 | 0.05 | 0.024 | 0.067 | 0.031 | 0.038 | 0.053 | 0.067 | 0.03 | 0.029 | 0.07 | 0.031 | 0.031 |  |
| C/C=C1\NC(=O)c2cc(F)cc(n2)CNC(=O)C[C@@H](/C=C/CCSC(C)=O)OC(=O)[C@H](Cc2cccc3ccccc23)NC1=O [Example 79] | 0.031 | 0.09 | 0.02 | 0.03 | 0.06 | 0.028 | 0.091 | 0.022 | 0.031 | 0.061 | 0.091 | 0.03 | 0.051 | 0.07 | 0.057 |  |  |
| C/C=C1\NC(=O)c2cccc(n2)CNC(=O)C[C@@H](/C=C/CCSC(=O)CCCCC)OC(=O)[C@H](C(C)C)NC1=O [Compound 3] | 0.043 | 0.03 |  |  |  | 0.034 | 0.033 | 0.043 | 0.091 | 0.029 | 0.097 |  | 0.028 | 0.05 | 0.171 |  | IC50 (HDAC1; [17]): 0.171 µM |
| C=C1NC(=O)c2nc(ccc2F)CNC(=O)C[C@@H](/C=C/CCSC(C)=O)OC(=O)[C@H](C(C)C)NC1=O [Compound 84] | 0.028 | 0.07 | 0.03 | 0.02 | 0.05 | 0.026 | 0.073 | 0.019 | 0.028 | 0.055 | 0.073 | 0.02 | 0.043 | 0.05 | 0.042 | 0.042 |  |
